Experiment [1] concerns the target Neuronal acetylcholine receptor; alpha3/beta4 (Rattus norvegicus) (UniProt P04757+P12392). Description: Inhibition of [3H]epibatidine from binding to rat nACh receptor alpha3beta4 expressed in HEK293 cell membrane at 10 uM incubated for 2.5 hrs by liquid scintillation counting analysis relative to control. Type of experiment: cell membranes.
The target of experiment [2] is Neuronal acetylcholine receptor; alpha4/beta2 (Homo sapiens) (UniProt P17787+P43681). Description: Inhibition of [3H]epibatidine from binding to human nACh receptor alpha4beta2 expressed in HEK293 cell membrane at 10 uM incubated for 2.5 hrs by liquid scintillation counting analysis relative to control. It counts as cell membranes.
For experiment [3], the target named is T1, 5-hydroxytryptamine receptor 2A (Homo sapiens, UniProt P28223). Description: Antagonist activity at 5-HT2A receptor in HEK293 cells assessed as calcium mobilisation by Fluo-4 dye based assay. It counts as functional, cell-based. On the technique in general: Calcium flux is commonly read through the fluorescence of an indicator in the cells.
The target of experiment [4] is T2, 5-hydroxytryptamine receptor 2C (Homo sapiens, UniProt P28335).
T2 sequence (P28335 whole entry): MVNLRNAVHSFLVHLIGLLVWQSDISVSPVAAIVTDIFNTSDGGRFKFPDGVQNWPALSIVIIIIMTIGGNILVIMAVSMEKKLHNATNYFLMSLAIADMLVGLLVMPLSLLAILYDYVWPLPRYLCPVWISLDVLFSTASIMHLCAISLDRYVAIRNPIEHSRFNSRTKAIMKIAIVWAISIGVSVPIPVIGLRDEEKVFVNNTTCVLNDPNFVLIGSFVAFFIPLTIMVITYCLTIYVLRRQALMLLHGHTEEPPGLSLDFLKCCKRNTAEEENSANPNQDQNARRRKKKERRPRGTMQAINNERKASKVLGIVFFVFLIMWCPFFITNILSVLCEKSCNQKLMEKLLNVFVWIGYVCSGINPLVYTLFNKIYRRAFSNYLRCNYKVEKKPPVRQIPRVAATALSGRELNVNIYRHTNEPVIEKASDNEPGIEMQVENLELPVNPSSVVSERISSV
The experiment can be described thus: Antagonist activity at 5-HT2C receptor in HEK293 cells assessed as calcium mobilisation by Fluo-4 dye based assay. It counts as functional, cell-based.

Experiment [5] has as its target T3, 5-hydroxytryptamine receptor 1A (Homo sapiens) (UniProt P08908).
T3 sequence (whole entry): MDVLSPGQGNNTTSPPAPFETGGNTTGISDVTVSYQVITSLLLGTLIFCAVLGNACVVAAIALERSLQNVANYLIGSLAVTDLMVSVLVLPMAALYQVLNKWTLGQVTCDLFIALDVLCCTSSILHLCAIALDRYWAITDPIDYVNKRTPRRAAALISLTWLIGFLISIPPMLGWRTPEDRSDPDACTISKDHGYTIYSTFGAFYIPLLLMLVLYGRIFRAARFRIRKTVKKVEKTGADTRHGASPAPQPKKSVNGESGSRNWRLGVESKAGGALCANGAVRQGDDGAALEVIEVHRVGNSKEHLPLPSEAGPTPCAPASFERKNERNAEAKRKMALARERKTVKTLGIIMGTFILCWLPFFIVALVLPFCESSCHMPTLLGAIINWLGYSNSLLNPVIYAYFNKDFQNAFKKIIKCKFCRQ
The experiment can be described thus: Inhibition of [3H]-8-OH-DPAT from binding to 5-HT1A receptor (unknown origin) at 10 uM relative to control.

In experiment [6] the target is 5-hydroxytryptamine receptor 2B (Homo sapiens) (UniProt P41595). The experiment can be described thus: Inhibition of [3H]mesulergine from binding to 5-HT2B receptor (unknown origin) at 10 uM relative to control.
For a further experiment, the species on record is Homo sapiens. Description: Inhibition of [3H]BRL43694 from binding to 5-HT3 receptor (unknown origin) at 10 uM relative to control.
The target in experiment [7] is 5-hydroxytryptamine receptor 4 (Homo sapiens) (UniProt Q13639). Description: Inhibition of [3H]GR113808 from binding to 5-HT4E receptor (unknown origin) at 10 uM relative to control.
For experiment [8], the target named is 5-hydroxytryptamine receptor 5A (Homo sapiens) (UniProt P47898). Description: Inhibition of [3H]LSD from binding to 5-HT5A receptor (unknown origin) at 10 uM relative to control.
Experiment [9] deals with 5-hydroxytryptamine receptor 6 (Homo sapiens) (UniProt P50406). The experiment can be described thus: Inhibition of [3H]LSD from binding to 5-HT6 receptor (unknown origin) at 10 uM relative to control.
Experiment [10] concerns the target 5-hydroxytryptamine receptor 7 (Homo sapiens) (UniProt P34969). The experiment can be described thus: Inhibition of [3H]LSD from binding to 5-HT7 receptor (unknown origin) at 10 uM relative to control.
Experiment [11] has the same target. Description: Inhibition of [3H]LSD from binding to 5-HT7 receptor (unknown origin) at 1 uM relative to control.
For experiment [12], the target named is T4, Muscarinic acetylcholine receptor M1 (Homo sapiens) (UniProt P11229).
T4 sequence (whole entry): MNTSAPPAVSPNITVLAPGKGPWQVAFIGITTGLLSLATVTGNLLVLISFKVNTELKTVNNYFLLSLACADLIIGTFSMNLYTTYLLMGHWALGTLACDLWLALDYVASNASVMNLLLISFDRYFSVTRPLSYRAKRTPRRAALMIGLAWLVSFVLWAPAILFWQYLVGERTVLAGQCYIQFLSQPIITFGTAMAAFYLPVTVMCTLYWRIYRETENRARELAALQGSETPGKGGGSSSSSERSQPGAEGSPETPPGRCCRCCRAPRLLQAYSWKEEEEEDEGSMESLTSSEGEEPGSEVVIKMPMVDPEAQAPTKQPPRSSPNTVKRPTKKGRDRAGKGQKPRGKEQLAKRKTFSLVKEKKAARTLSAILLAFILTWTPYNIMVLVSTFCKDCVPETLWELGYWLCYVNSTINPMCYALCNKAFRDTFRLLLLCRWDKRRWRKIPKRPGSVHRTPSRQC
The experiment can be described thus: Inhibition of [3H]pirenzepine from binding to M1 receptor (unknown origin) at 10 uM relative to control.

Experiment [13] addresses T5, Muscarinic acetylcholine receptor M2 (Homo sapiens) (UniProt P08172).
T5 sequence (whole entry): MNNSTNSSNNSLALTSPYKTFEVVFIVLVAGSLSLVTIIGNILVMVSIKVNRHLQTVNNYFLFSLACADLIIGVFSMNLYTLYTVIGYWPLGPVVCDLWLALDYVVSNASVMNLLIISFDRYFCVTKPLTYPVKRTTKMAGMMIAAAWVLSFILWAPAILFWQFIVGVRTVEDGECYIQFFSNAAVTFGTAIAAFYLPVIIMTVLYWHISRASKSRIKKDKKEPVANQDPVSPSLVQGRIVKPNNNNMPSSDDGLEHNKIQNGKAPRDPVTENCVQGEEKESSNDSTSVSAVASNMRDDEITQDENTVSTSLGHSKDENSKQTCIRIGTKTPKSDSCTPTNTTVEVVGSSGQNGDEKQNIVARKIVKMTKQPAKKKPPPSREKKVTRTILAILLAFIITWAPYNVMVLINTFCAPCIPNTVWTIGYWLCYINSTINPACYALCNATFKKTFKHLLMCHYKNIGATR
The experiment can be described thus: Inhibition of [3H]AF-DX384 from binding to M2 receptor (unknown origin) at 10 uM relative to control.

Experiment [14] concerns the target Muscarinic acetylcholine receptor M3 (Homo sapiens) (UniProt P20309). The experiment can be described thus: Inhibition of [3H]4-DAMP from binding to M3 receptor (unknown origin) at 10 uM relative to control.
Experiment [15] has as its target T6, Muscarinic acetylcholine receptor M4 (Homo sapiens) (UniProt P08173).
T6 sequence (whole entry): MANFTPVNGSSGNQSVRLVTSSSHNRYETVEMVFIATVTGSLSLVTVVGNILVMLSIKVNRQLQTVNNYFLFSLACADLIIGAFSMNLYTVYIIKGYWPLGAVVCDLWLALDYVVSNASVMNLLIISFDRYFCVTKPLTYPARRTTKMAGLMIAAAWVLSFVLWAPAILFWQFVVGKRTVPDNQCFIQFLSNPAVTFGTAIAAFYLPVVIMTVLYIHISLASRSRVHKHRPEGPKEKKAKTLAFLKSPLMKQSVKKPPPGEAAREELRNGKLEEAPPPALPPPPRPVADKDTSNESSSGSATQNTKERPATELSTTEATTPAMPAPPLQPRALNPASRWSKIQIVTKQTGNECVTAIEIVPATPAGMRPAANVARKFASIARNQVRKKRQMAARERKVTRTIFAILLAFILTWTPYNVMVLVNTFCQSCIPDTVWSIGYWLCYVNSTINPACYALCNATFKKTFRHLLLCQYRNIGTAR
The experiment can be described thus: Inhibition of [3H]4-DAMP from binding to M4 receptor (unknown origin) at 10 uM relative to control.

The target of experiment [16] is T7, Muscarinic acetylcholine receptor M5 (Homo sapiens) (UniProt P08912).
T7 sequence (whole entry): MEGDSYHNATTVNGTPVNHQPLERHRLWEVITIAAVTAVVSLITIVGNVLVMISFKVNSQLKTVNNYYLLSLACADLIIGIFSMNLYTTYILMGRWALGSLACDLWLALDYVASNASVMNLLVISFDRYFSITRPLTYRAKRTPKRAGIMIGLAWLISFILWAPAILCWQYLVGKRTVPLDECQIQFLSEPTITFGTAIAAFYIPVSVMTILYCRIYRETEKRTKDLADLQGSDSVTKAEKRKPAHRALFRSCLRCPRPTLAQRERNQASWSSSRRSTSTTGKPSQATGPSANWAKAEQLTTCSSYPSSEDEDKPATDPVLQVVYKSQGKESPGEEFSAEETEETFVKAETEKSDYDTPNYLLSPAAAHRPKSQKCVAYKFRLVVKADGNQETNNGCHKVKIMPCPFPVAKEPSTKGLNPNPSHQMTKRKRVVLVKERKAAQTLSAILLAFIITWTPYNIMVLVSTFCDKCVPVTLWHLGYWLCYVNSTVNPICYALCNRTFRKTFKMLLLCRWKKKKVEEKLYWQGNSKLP
The experiment can be described thus: Inhibition of [3H]4-DAMP from binding to M5 receptor (unknown origin) at 10 uM relative to control.

Experiment [17] can be described thus: Antagonist activity at 5-HT-induced 5-HT2B signaling in CHO cells by IP1 assay. The note with it: Cricetulus griseus.
Experiment [18] addresses T1, 5-hydroxytryptamine receptor 2A. Description: Agonist activity at 5-HT2A receptor in HEK293 cells assessed as calcium mobilisation by Fluo-4 dye based assay.

A word on the inhibition: it is the drop in the measured response relative to a control, in per cent. Lower therefore signals a weak effect. For orientation: pIC50 means the negative decadic logarithm of the IC50, by convention in mol/L. What is called pEC50 is the EC50 on a negative log10 scale, so that one unit is a factor of ten.

pEC50, pIC50: −log10 of the molar value. Some results are limits rather than exact numbers.

T1 sequence (P28223 whole entry): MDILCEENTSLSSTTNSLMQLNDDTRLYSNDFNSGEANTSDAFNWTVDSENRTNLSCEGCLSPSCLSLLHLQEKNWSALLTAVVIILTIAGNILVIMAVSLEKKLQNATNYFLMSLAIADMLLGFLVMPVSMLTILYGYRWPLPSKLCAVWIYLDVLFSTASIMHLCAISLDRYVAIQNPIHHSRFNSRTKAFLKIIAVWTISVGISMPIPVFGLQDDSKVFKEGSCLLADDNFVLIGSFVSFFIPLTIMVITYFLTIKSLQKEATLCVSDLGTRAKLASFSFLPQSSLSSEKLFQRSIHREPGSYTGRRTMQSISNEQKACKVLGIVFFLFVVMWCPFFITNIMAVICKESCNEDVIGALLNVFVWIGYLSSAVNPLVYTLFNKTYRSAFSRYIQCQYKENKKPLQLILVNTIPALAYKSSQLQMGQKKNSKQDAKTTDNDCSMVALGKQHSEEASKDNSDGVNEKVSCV
5-hydroxytryptamine receptor 7 (Homo sapiens), sequence (P34969 whole entry): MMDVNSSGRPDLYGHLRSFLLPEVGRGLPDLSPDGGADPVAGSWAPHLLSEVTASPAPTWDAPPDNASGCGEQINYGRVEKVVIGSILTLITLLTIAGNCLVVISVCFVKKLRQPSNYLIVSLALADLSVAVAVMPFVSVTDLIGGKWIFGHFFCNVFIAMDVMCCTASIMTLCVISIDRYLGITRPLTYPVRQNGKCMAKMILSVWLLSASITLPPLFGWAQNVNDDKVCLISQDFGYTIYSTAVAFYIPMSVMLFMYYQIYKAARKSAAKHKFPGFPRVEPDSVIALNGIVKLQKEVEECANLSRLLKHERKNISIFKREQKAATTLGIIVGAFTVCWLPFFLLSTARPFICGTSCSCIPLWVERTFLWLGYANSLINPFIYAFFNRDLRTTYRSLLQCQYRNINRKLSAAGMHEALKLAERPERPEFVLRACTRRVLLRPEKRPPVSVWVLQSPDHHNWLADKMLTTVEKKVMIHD
5-hydroxytryptamine receptor 6 (Homo sapiens), sequence (P50406 whole entry): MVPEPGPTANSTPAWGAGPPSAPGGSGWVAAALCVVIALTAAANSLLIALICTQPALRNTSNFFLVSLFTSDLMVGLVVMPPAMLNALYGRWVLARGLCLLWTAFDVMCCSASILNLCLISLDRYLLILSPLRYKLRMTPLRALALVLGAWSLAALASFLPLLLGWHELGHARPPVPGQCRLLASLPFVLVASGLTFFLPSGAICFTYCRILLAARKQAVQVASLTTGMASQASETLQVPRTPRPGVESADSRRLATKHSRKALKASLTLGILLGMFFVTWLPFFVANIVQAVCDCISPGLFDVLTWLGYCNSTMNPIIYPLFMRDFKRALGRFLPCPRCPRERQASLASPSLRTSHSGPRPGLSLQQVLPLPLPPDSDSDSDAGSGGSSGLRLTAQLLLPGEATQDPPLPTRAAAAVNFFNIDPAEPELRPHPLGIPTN
Muscarinic acetylcholine receptor M3 (Homo sapiens), sequence (P20309 whole entry, looked up): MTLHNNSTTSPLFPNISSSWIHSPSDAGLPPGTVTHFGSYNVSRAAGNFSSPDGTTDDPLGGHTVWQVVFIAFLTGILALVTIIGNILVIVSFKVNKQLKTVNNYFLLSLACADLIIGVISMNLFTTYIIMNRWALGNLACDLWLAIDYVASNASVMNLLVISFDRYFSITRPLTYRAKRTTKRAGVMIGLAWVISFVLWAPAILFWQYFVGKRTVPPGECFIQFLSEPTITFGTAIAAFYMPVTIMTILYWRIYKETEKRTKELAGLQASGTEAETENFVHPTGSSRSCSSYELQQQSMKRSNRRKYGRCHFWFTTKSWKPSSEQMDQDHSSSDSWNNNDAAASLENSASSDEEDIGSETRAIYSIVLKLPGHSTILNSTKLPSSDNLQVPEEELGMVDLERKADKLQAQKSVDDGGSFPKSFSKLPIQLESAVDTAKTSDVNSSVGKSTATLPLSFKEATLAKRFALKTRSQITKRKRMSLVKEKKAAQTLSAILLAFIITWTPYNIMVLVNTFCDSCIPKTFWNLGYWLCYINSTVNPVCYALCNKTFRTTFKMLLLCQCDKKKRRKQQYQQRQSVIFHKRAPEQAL
5-hydroxytryptamine receptor 5A (Homo sapiens), sequence (P47898 whole entry): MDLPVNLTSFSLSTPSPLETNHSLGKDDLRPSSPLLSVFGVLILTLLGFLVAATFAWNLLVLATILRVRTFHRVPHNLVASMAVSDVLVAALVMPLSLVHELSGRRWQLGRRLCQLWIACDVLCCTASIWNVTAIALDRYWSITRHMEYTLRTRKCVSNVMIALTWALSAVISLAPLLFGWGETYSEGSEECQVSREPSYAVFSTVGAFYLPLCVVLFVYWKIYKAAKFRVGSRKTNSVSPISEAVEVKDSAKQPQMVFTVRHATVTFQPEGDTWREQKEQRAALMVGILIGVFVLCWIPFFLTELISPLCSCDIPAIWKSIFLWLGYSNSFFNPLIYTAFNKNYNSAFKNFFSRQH
5-hydroxytryptamine receptor 4 (Homo sapiens), sequence (Q13639 whole entry): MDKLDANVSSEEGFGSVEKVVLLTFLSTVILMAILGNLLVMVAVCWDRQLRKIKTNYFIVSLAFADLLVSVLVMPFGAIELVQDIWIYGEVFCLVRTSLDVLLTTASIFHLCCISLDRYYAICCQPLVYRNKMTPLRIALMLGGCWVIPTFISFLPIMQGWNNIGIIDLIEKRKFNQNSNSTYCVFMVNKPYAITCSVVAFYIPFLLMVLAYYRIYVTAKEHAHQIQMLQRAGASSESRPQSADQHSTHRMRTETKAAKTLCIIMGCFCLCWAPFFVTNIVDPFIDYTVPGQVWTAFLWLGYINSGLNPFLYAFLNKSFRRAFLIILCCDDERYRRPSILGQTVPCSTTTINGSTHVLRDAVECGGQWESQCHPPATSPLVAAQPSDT
5-hydroxytryptamine receptor 2B (Homo sapiens), sequence (P41595 whole entry): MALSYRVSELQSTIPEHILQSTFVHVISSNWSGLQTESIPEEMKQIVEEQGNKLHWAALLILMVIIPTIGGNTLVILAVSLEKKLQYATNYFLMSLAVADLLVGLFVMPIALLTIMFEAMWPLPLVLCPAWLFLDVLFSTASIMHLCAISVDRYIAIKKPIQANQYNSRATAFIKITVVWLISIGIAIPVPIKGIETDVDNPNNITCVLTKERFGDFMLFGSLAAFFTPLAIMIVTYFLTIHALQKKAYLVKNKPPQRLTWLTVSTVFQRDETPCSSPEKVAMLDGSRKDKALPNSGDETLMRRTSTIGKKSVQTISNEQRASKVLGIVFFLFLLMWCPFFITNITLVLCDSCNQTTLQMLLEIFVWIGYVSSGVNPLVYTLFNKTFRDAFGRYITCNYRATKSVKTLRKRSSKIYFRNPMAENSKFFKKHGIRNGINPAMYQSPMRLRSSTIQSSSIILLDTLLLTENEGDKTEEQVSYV

For `O=C1NC2(CN3CCC2CC3)Nc2ccccc21` (stereo not given), the inhibition in [1] and in experiment [2] was over 50% throughout.
Turning to `O=C1C[C@]2(CN3CCC2CC3)Oc2ccc(F)cc21`, the pIC50 in experiment [3] and in [4] was under 5.00 each time.
Regarding `O=C1C[C@]2(CN3CCC2CC3)Oc2cc(Br)ccc21`, the negative-log IC50 (pIC50) in experiment [3] is 4.82; in [4], 5.64.
As to `O=C1C[C@]2(CN3CCC2CC3)Oc2cc(OCC3CC3)ccc21`, the negative-log IC50 (pIC50) is under 4.00 in [3] and 5.82 in experiment [4].
The matching figures for `O=C1C[C@]2(CN3CCC2CC3)Oc2ccccc21`: under 5.00 and under 5.00.
For `O=C1C[C@]2(CN3CCC2CC3)Oc2c1ccc1ccccc21`, the negative-log IC50 (pIC50) is 4.30 in experiment [3], 7.02 in experiment [4] and 6.87 in experiment [17]. Further, the inhibition was found to be 57% in [5]; 99% in experiment [6]; 85% in the experiment listed under Homo sapiens; 42% in experiment [7]; 64% in experiment [8]; 57% in [9]. Moreover, the inhibition came out at 92% in [10]; 67% in experiment [11]; 67% in [12]; 31% in [13]; 27% in experiment [14]; 67% in [15]. This molecule yielded an inhibition in experiment [16] of 69%.
On to `O=C1CC2(CN3CCC2CC3)Oc2c1ccc1ccccc21` (racemic), for which the negative logarithm of the IC50 (pIC50) in [3] was 4.70; in [4] it was 6.74.
As to `O=C1C[C@@]2(CN3CCC2CC3)Oc2c1ccc1ccccc21`, the pIC50 in [3] is under 4.00; in experiment [4], 4.30.
The matching figures for `COc1cccc2c1C(=O)C[C@]1(CN3CCC1CC3)O2`: under 4.00 and 5.30.
The matching figures for `Cc1ccc2c(c1)O[C@]1(CC2=O)CN2CCC1CC2`: under 4.00 and 5.60.
Consider `COc1ccc2c(c1)O[C@]1(CC2=O)CN2CCC1CC2`, for which the pIC50 in [3] is under 4.52; in [4], 6.28. For the same molecule, in [18], the pEC50 was under 4.52.
Consider `COc1ccc2c(c1)C(=O)C[C@]1(CN3CCC1CC3)O2`, for which the negative logarithm of the IC50 (pIC50) in experiment [3] and in experiment [4] was under 5.00 in each case.
`O=C1C[C@]2(CN3CCC2CC3)Oc2ccc(Br)cc21`: the pIC50 in experiment [3] and in [4] was under 5.00 in each case.
`O=C1C[C@]2(CN3CCC2CC3)Oc2cc3ccccc3cc21`: the negative logarithm of the IC50 (pIC50) in [3] was 4.30; in experiment [4], under 4.00.
The matching figures for `O=C1C[C@]2(CN3CCC2CC3)Oc2cc(O)ccc21`: under 4.00 and 5.60.

The values are drawn from ChEMBL document CHEMBL5360648, “Identification of 5-HT2 Serotonin Receptor Modulators through the Synthesis of a Diverse, Tropane- and Quinuclidine-alkaloid-Inspired Compound Library” (J Med Chem, 2023).
